Data reported in patent US20260151518A1, “LEUKOCYTE-SPECIFIC CELL PENETRATING MOLECULES” (Amytrx Therapeutics, Inc., priority 2021, published 2026).

What was measured:
[1] = Pharmacokinetics of [3H]-AMTX-100 after multiple routes of administration; assay type: in vivo, rat; settings: rats, [3H]-AMTX-100
Method: AMTX-100 was radiolabeled with 3H at lysine residues and injected into Sprague-Dawley rats in a single dose by seven different routes (intravenous, subcutaneous, topical [skin], intratracheal, intraduodenal, esophageal, and oral). The rats were evaluated at various time points, up to 120 hours, by: a) blood samples were taken for pharmacokinetics (PK) by cardiac puncture; b) rats were frozen and sectioned for QWBA and/or micro-auto-radiography and histology; and c) frozen sections were made and freeze dried and exposed to phosphor-storage imaging plates and tissue radioactivity in images was quantified as tissue: blood ratios.
For all PK studies, the following definitions were used: WB=whole blood; Plasma=whole blood depleted of red blood cells; WBCD=whole blood depleted of white blood cells in which the whole blood is passed over a Pall Acrodisc filter (about 60% efficient); WBCs=the cells which bind to, and are washed off, the Pall Acrodisc filter.

[2] = Pharmacokinetic study, AMTX-100 in plasma by LC-MS; assay type: in vivo; settings: mice, sensitive to 2 ng/ml
Human whole blood (WB) = assay: Flow cytometry of human whole blood incubated with FITC-labelled peptide; assay type: cell-based
Method: It was originally believed that the SSHR on AMTX-100 could enter cells without a receptor, energy or endocytosis. However, in studies performed by the present inventors, an AMTX-100-related peptide with a double-null knockout for Importin α/Importin β complex and Importin β obtained by amino acid substitution and also containing a FITC molecule (FITC-SMTX-100), was incubated with human blood and analyzed by flow cytometry.
Because there appeared to be a concentration of radioactivity in organs with immune cells, a series of flow cytometry experiments was initiated with human blood. All cells were first stained with FITC-AMTX-100 and then incubated with immunotyping reagents that separated hematopoietic cells into broad categories of RBCs, granulocytes, monocytes, B- and T-lymphocytes, and NK cells. […] Again, a highly unexpected finding for a peptide which is “purported” to be a promiscuous, cell-penetrating, leader sequence.
Human whole blood (WB) was obtained from multiple normal donors and incubated with [FITC]-AMTX-100 at μg/mL quantities in repeat experiments ex vivo.
Panels of monoclonal antibodies labeled with fluorescent dyes were used to phenotypically identify [FITC]-AMTX-100 penetrated WB cells including classical monocytes, non-classical monocytes, neutrophils, basophils, eosinophils, and T- and B-lymphocytes and NK cells (FIG. 4A-B). […]

[3] = test system: animal models of lung, liver, sepsis, and metabolic syndrome induced inflammation; settings: intraperitoneal injections; cited from earlier work

**Q.** For `CSCC[C@@H]1NC(=O)[C@H](CC(C)C)NC(=O)[C@H](CCCCN)NC(=O)[C@H](CCC(N)=O)CC(=O)[C@H](CCCNC(=N)N)NC(=O)[C@H](CCCCN)NC(=O)[C@H](CCCNC(=N)N)NC(=O)[C@H](CCC(N)=O)NC(=O)[C@H](C(C)C)NC(=O)[C@@H](NC(=O)[C@@H]2CCCN2C(=O)[C@H](C)NC(=O)[C@H](CC(C)C)NC(=O)[C@H](CC(C)C)NC(=O)[C@H](C)NC(=O)[C@H](CC(C)C)NC(=O)[C@H](CC(C)C)NC(=O)[C@@H](NC(=O)[C@H](C)NC(=O)[C@@H]2CCCN2C(=O)[C@H](CC(C)C)NC(=O)[C@H](CC(C)C)NC(=O)[C@H](C)NC(=O)[C@@H](NC(=O)[C@H](C)NC(=O)[C@H](C)N)C(C)C)C(C)C)CSSC[C@@H](C(=O)O)NC(=O)[C@@H]2CCCN2C1=O` [AMTX-100], which “Partition of radiation in blood” value [1] is on record?
**A.** partitioned to the WBCs

**Q.** And the “Detection of AMTX-100 in plasma depleted of RBCs and WBCs” value [2]?
**A.** not possible to detect

**Q.** What about the Leukocyte populations targeted (Human whole blood (WB)) of the same compound?
**A.** leukocytes (classical and non-classical monocytes, neutrophils, basophils and eosinophils)

**Q.** And the “Efficacy in animal models of inflammation” value [3]?
**A.** have shown efficacy
